The values that follow are results of earlier work, collected in US20240173373A1, “NOVEL METHOD FOR THE PRODUCTION OF CONCENTRATED ALOE VERA COMPOSITIONS AND THERAPEUTIC USES FOR THE SAME” (Desert Harvest, Inc., priority 2021, published 2024).

The subject of this series is scald hyperalgesia. The conditions noted are these: compared with phenylbutazone.

For “O-acetylated-D-mannan [O-acetylated-D-mannan (T-2-HN)]”, the “inhibitory effect on scald hyperalgesia” value is listed as “more marked inhibitory effect on scald hyperalgesia than phenylbutazone”.
